# Data from patent US20250346584A1, “NOVEL KAPPA OPIOID LIGANDS” (The Scripps Research Institute, priority 2012, published 2025).
# Target: kappa opioid receptor (OPRK1) (Homo sapiens (Human), UniProt P41145)
# Assay: OPRK1 antagonist assay (b-arrestin-2-TEV / b-lactamase reporter cell line, EC80 U-50488 challenge)
# Format: cell-based
# Settings: read-out: IC50 nM (% inhib if other than 50%); antagonist mode vs EC80 U-50488; NA = not active at concentrations up to 10 μM
# kappa opioid receptor (OPRK1), sequence (P41145 whole entry): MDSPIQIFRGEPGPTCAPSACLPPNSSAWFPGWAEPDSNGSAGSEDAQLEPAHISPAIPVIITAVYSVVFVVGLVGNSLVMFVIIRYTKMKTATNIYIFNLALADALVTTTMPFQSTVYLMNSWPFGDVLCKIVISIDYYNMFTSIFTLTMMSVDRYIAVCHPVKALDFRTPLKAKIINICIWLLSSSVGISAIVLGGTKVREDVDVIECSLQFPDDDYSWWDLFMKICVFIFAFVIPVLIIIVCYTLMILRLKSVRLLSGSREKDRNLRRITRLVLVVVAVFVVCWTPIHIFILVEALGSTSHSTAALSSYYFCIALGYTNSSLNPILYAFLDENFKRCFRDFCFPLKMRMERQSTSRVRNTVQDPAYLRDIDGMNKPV
row,Compound,IC50 [nM]
1,CC(=O)c1cc2cc(C)ccc2nc1N1CCC(NC2CCCCC2)CC1 [compound 479],211
2,Cc1nc(-c2cc3ccc(F)cc3nc2N2CCC(NC3CCCCC3)CC2)no1 [compound 480],8
3,Cc1nc(-c2cc3ccc(F)cc3nc2N2CCC(NC3CCCC3)CC2)no1 [compound 481],10
4,Cc1nc(-c2cc3ccc(F)cc3nc2N2CCC(NC3CCOCC3)CC2)no1 [compound 482],75
5,CO[C@H]1CN(c2nc3ccc(C)cc3cc2C(C)=O)CC[C@H]1NC1CCCCC1 [compound 483],315
6,CO[C@@H]1CN(c2nc3ccc(C)cc3cc2C(C)=O)CC[C@@H]1NC1CCCCC1 [compound 484],347
7,Cc1nc(-c2cc3ccc(F)cc3nc2N2CCC(N[C@H]3CCCC[C@@H]3O)CC2)no1 [compound 485],673
8,Cc1nc(-c2cc3ccc(F)cc3nc2N2CCC(N[C@H]3CCCOC3)CC2)no1 [compound 486],1070
9,CO[C@H]1CN(c2nc3c(C)c(F)ccc3cc2-c2nc(C)no2)CC[C@H]1NC1CCCCC1 [compound 487],15
10,Cc1ccc2nc(N3CCC(NC4CCCCC4)CC3)c(-c3ccc(C)o3)cc2c1 [compound 488],19
11,Cc1noc(-c2cc3ccc(F)c(C)c3nc2N2CCC(NC3CCCCC3)CC2)n1 [compound 491],33
12,CO[C@@H]1CN(c2nc3c(C)c(F)ccc3cc2-c2nc(C)no2)CC[C@@H]1NC1CCCCC1 [compound 492],74
13,Cc1noc(-c2cc3ccc(F)c(C)c3nc2N2CCC(NC3CCOCC3)CC2)n1 [compound 493],132
14,Cc1noc(-c2cc3ccc(F)c(C)c3nc2N2CCC(NCC(C)C)CC2)n1 [compound 494],64
15,Cc1nc(-c2cc3cc(C)c(F)cc3nc2N2CCC(NC3CCCCC3)CC2)no1 [compound 495],13
16,CO[C@H]1CN(c2nc3cc(F)c(C)cc3cc2-c2nc(C)no2)CC[C@H]1NC1CCCCC1 [compound 496],54
17,CO[C@H]1CN(c2nc3ccc(C)cc3cc2-c2ccc(C)o2)CC[C@H]1NC1CCCCC1 [compound 497],48
18,Cc1noc(-c2cc3cc(C)c(F)cc3nc2N2CCC(NCC(C)C)CC2)n1 [compound 498],33
19,Cc1cnc(N2CCC(NC3CCCCC3)CC2)c(-c2ccc(C)o2)c1 [compound 499],116

row,Compound,IC50 [nM]
1,CO[C@H]1CN(c2nc3ccc(C)cc3cc2-c2nc(C)no2)CC[C@H]1NC1CCOCC1 [compound 500],423
2,Cc1ccc2nc(N3CCC(NC4CCOCC4)CC3)c(-c3ccc(C)o3)cc2c1 [compound 501],331
3,Cc1nc(-c2cc3ccc(F)c(C)c3nc2N2CCC(NC3CCCCC3)CC2)no1 [compound 503],74
4,Cc1nc(-c2cc3ccc(F)c(C)c3nc2N2CCC(NC3CCCC3)CC2)no1 [compound 504],45
5,Cc1nc(-c2cc3ccc(F)c(C)c3nc2N2CCC(NCC(C)C)CC2)no1 [compound 505],126
6,Cc1nc(-c2cc3cc(C)c(F)cc3nc2N2CCC(N[C@H]3CCCC[C@@H]3O)CC2)no1 [compound 506],48
7,Cc1nc(-c2cc3cc(C)c(F)cc3nc2N2CCC(NC3CCOCC3)CC2)no1 [compound 507],43
8,CO[C@H]1CN(c2nc3cc(F)ccc3cc2-c2nc(C)no2)CC[C@H]1NC1CCCCC1 [compound 508],5
9,Cc1cc(-c2nc(C3CC3)no2)c(N2CCC(NCC(C)C)CC2)nn1 [compound 509],30
10,Cc1nc(-c2cc3ccc(F)c(C)c3nc2N2CCC(N[C@H]3CCCC[C@@H]3O)CC2)no1 [compound 510],115
11,Cc1nc(-c2cc3ccc(F)c(C)c3nc2N2CCC(NC3CCOCC3)CC2)no1 [compound 511],227
12,Cc1nc(-c2cc3cc(C)c(F)cc3nc2N2CCC(NC3CCCC3)CC2)no1 [compound 512],12
13,Cc1nc(-c2cc3cc(C)c(F)cc3nc2N2CCC(NCC(C)C)CC2)no1 [compound 513],27
14,CO[C@@H]1CN(c2nc3cc(F)ccc3cc2-c2nc(C)no2)CC[C@@H]1NC1CCCCC1 [compound 514],55
15,Cc1noc(-c2cc3ccc(F)cc3nc2N2CCC(NC3CCCCC3)CC2)n1 [compound 515],7
16,Cc1ccc2nc(N3CCC(N[C@H]4CCCC[C@@H]4O)CC3)c(-c3ccncn3)cc2c1 [compound 516],564
17,Cc1cnc(N2CCC(NC3CCCCC3)CC2)c(-c2ccncn2)c1 [compound 517],1140
18,Cc1ccc2nc(N3CCC(NC4CCOCC4)CC3)c(-c3nc(C)no3)nc2c1 [compound 518],410
19,CO[C@H]1CN(c2nc3ccc(C)cc3nc2-c2nc(C)no2)CC[C@H]1NC1CCCCC1 [compound 519],95

row,Compound,IC50 [nM]
1,CO[C@H]1CN(c2nc3cccc(F)c3cc2-c2nc(C)no2)CC[C@H]1NC1CCCCC1 [compound 520],19
2,CO[C@H]1CN(c2nc3ccc(C)cc3cc2-c2nc(C)no2)CC[C@H]1NC1CCC(F)(F)CC1 [compound 521],278
3,CO[C@@H]1CN(c2nc3ccc(C)cc3cc2-c2nc(C)no2)CC[C@@H]1NC1CCOCC1 [compound 522],67
4,CCc1ccc2nc(N3CCC(N[C@H](C)CC)CC3)c(-c3nc(C)no3)cc2c1 [compound 525],17
5,Cc1noc(-c2cc3c(F)cccc3nc2N2CCC(NCC(C)C)CC2)n1 [compound 526],49
6,Cc1noc(-c2cc3ccc(F)cc3nc2N2CCC(NCC(C)C)CC2)n1 [compound 527],20
7,Cc1noc(-c2cc3ccc(F)cc3nc2N2CCC(NC3CCOCC3)CC2)n1 [compound 528],23
8,CO[C@H]1CN(c2nc3ccc(C)cc3cc2-c2nc(C)no2)CC[C@H]1NCC(C)C [compound 529],369
9,CO[C@H]1CN(c2nc3ccc(F)cc3cc2-c2nc(C)no2)CC[C@H]1NCC(C)C [compound 530],5100
10,Cc1ccc2nc(N3CCC(NC4CCCCC4)CC3)c(-c3ccncn3)cc2c1 [compound 532],334
11,Cc1ccc2nc(N3CCC(NC4CCCC4)CC3)c(-c3ccncn3)cc2c1 [compound 533],263
12,Cc1ccc2nc(N3CCC(NCC(C)C)CC3)c(-c3ccncn3)cc2c1 [compound 534],600
13,Cc1noc(-c2cc3ccc(Cl)cc3nc2N2CCC(NC3CCCCC3)CC2)n1 [compound 536],19
14,CO[C@H]1CN(c2nc3cc(Cl)ccc3cc2-c2nc(C)no2)CC[C@H]1NC1CCCCC1 [compound 537],12
15,CO[C@H]1CN(c2nc3cc(F)ccc3cc2-c2nc(C)no2)CC[C@H]1NCC(C)C [compound 538],970
16,COC(=O)c1cc(C)ccc1N1CCC(NC2CCCCC2)C(OC)C1 (stereo not drawn) [compound 539],3700
17,CCOC(=O)c1cc(Br)cnc1N1CC[C@H](NC2CCCCC2)[C@@H](O)C1 [compound 540],16
18,Cc1noc(-c2cc3ccc(Cl)cc3nc2N2CCC(NCC(C)C)CC2)n1 [compound 541],45
19,Cc1noc(-c2cc(C)c(C)nc2N2CC[C@H](NC3CCCCC3)[C@@H](O)C2)n1 [compound 543],32
